Key:
[1] = target: His6-TEV-PDGFRβ (557-1016) (Homo sapiens (Human), UniProt P09619); experiment: PDGFRβ HTRF Assay; type: biochemical; settings: read-out: PDGFR HTRF IC50
Procedure: Instrumentation: a. Compound liquid handling: LabCyte Echo; b. Reagent liquid handling: Thermo Scientific Multidrop Combi; c. BMG PHERAStar multilabel plate reader.
Protein Reagent: His6-TEV-PDGFRβ Protein Prep prepared at Accelagen.
(§1) II. Methods and Procedures
Assay buffer stock solution, contains 50 mM Hepes, 10 mM MgCl2, 1 mM EGTA, and 0.01% Brij-35, 0.01% ovalbumin, 2 mM DTT at pH 7.5, in molecular biology grade water. Store at room temperature.
DTT, 2 M in molecular biology grade water, store at −20° C. in aliquots.
Ovalbumin, 10% or 100 mg/mL, prepare fresh on experimental day.
PDGFRβ, 116 μM (PDGFRb_08 Prep 02), produced at Accelagen. Store at −80° C. in aliquots.
TK-biotin peptide, […] in molecular biology grade water, store at −20° C. in aliquots.
ATP, 100 mM in molecular biology grade water, store at −20° C. in aliquots.
HTRF KinEASE-TK kit: Allow the contents of the Cisbio kit to warm up to room temperature before use. This kit contains HTRF detection buffer, TK-Antibody labeled with Eu^3+-cryptate, TK-substrate biotin and Streptavidin-XL665.
TK Substrate-Biotin, reconstitute 500 μg lyopholized with 574 μL molecular biology grade water to prepare a 500 μM stock; After use, aliquot the rest and store at −20° C.
TK Antibody-Cryptate, reconstitute lyophilized with 1 mL of molecular biology grade water (100× solution) then add 99 mL detection buffer to prepare a ready to use TK-antibody-cryptate solution; the concentration of the TK-antibody-cryptate reagent is not known. After use, aliquot the rest and store at −20° C.
Streptavidin-XL665, reconstitute 3 mg lyophilized with 3 mL molecular biology grade water to prepare a 1 mg/mL or 16.67 μM stock; MW=60 kDa; After use, aliquot the rest and store at −20° C.
(§2) Freshly Prepared Solutions:
Assay buffer. Dilute 5× Kinase buffer 5-fold with molecular biology grade water and add DTT to 2 mM and ovalbumin to 0.1 mg/mL (or 0.01%).
2× protein solution. Make a working solution of […] PDGFRβ in assay buffer. Keep on ice until use to maintain enzyme stability.
2× substrate solution. Make a working solution of 1.6 mM ATP and 1 μM TK-substrate biotin peptide in assay buffer.
3× quench/detection solution. Make a working solution of 0.1875 μM SA-XL665 and the TK-antibody cryptate diluted by 12 of total quench/detection volume in assay buffer.
Keep final streptavidin/biotin ratio at 1 to 8.
Example of 3× quench/detection solution preparation: 8 mL total volume.
TK antibody-cryptate in detection buffer—4000 μL
The kinase reaction is stopped by the addition of the detection reagents which contain EDTA (detection step).
Assay in white ProxiPlate 384-well
Step 1. Dispensing inhibitors/DMSO and low control: Using the ECHO 555 acoustic dispenser, spot desired compound serial dilutions in DMSO, NEAT DMSO to represent the uninhibited enzyme control, and 10 μM final [imatinib] to the represent the 100% inhibited enzyme control
Step 2. PDGFRβ E+I pre-incubation: Add 2 μL 2× protein solution to columns 1-24 using the Multidrop Combi. Centrifuge at 1000 rpm for 1 min. Incubate 30 min at RT
Step 2. Enzymatic reaction: Add 2 μL substrate solution to columns 1-24 to initiate the reaction using the Multidrop Combi; cover/seal the assay plate to reduce evaporation. Centrifuge at 1000 rpm for 1 min. Incubate at room temperature for 3 hours.
Step 3. Quench/Detection: Add 2 μl 3× quench/detection solution to columns 1-24 using the Multidrop Combi; cover/seal the plate. Centrifuge 1 min 1000 rpm. Incubate at RT for 60 min. Read the plate in PHERAstar (or similar instrument) on HTRF setting at excitation 337 nm—dual emission—665/620 nm ratio.
(§3) III. Calculations and Formulas
HTRF ratio values calculated by the instrument (Ratio is acceptor counts/donor counts*10,000) is exported from the plate reader and used in data analysis. […] Assay statistics can include Robust Z′ and Signal to Background.
% Inhibition Calculation: Percent inhibition will be calculated for sample wells based on the equation: […]

PDGFRβ = PDGFRβ (Rattus norvegicus (Rat), UniProt Q05030); experiment: PDGFRβ Cellular Assay (PDGFRb P-Y751 HTRF in A10 cells stimulated with PDGF-BB); type: cell-based; settings: PDGFR Cellular IC50
Procedure: as §1
Cell Culture and Preparation: Cells are cultured according to ATCC procedure (5) with the addition of the antibiotic penicillin-streptomycin. If working from frozen, cells should be thawed according to ATCC procedure. Depending on the cell density of frozen vial, cells will need time to recover from thaw. An 80% confluent T75 flask should be enough for one 384 well plate.
Stock Solutions: Rat PDGFBB. A 100 ug/mL stock is prepared by reconstituting 50 ug in 500 uL of 4 mM HCl and 0.1% BSA. It can be stored for a month at 4° C., or aliquoted out and frozen in the −20/−80° C. to avoid multiple free-thaw cycles.
as §2
1× Cisbio cell lysis buffer. The cell lysis buffer is diluted 4-fold with molecular grade water. The blocking agent is then diluted 25-fold in the diluted lysis buffer.
Antibody solutions. Equal amounts d2 and cryptate antibody are diluted 20-fold in detection buffer.
Rat PDGFBB. A working stock of 100 ng/mL is created from the stock solution in 10% FBS culture media.
Step 1: Plating Cells: Media from the A10 cell flask is aspirated. The cells are rinsed with PBS and then trypsinized to disperse the cell layer. The cells are then pelleted are resuspended to 1.25e5 cells/mL. […] Plates are covered and placed in the incubator (37° C. 5% CO2) overnight to allow cells to adhere.
Step 2: Compound Dispense: Approximately 18 hours after plating, dispense 40 nL compound onto cells using Echo. Column 12 is the neutral control DMSO, column 24 is the inhibitor control 10 mM Imatinib (10 uM final assay concentration). The plate is returned to the incubator for 3 hours.
After 10 minutes the media is removed by flicking the plate.
Step 4: Cell lysis and antibody addition: 20 uL lysis buffer per well is added to the plate via Tempest. 5 uL antibody solution is added per well via the Tempest. The plate is placed on the shaker at 230 rpm for 1 hour at room temperature.
Step 5: Detection: The plate is read using the HTRF module on the BMG Pherastar. Data is analyzed using Genedata Screener.
as §3
% Inhibition: % Inhibition=(NC−sample)/(NC−PC)*100 where NC is the mean of negative control (reactions without inhibitor), and PC is the mean of positive control (10 μM imatinib).
IC50 values are determined from a 4-parameter fit, using the following equation: Y=Bottom+(Top−Bottom)/(1+10((Log IC50−X)*Hill slope)), where X=log10 of the compound concentration; top can be defined by PC; bottom defined by NC.

VEGFR2, unphosphorylated = VEGFR2, unphosphorylated (Homo sapiens (Human), UniProt P35968); experiment: VEGFR ADP GLO Assay; type: biochemical
Procedure: as §1
Assay buffer stock contains 50 mM HEPES pH7.5, 10 mM MgCl2, 0.01% Brij-35, and 1 mM EGTA.
Unphosphorylated VEGFR2. […] Store at −80° C. in aliquots.
Sonicate 10 mg/ml Srctide solution for 10 minutes and then vacuum filter.
Freshly Prepared Solutions
2× kinase solution. Make a working solution of 10 nM unphosphorylated VEGFR2 in Assay buffer. Vacuum filter 2× kinase solution prior to running assay. Keep on ice until use.
2× substrate/ATP solution. Make a working solution of 2 mg/mL srctide and 2.4 mM ATP in Assay buffer. Keep on ice until use.
Step 1. Dispensing inhibitors/controls: Using Echo, dispense 10 nL/well compound serial dilutions in DMSO to columns 1-22 (in 384-well plates) or columns 1-44 (in 1536-well plates). Dilution series=11 pt, 3-fold dilutions. The top compound concentration in the source plate is 4 mM. The top compound concentration in the assay plate is 10 uM. Using Echo, dispense 10 nl/well DMSO to column 23 (in 384-well plates) or columns 45-47 (in 1536-well plates). […] These wells will serve as positive control wells.
Step 2. Pre-incubation of inhibitors with kinase: Add 2 μL/well 2× kinase solution. Centrifuge at 1000 rpm for 1 min. Incubate at room temperature for 30 min.
Step 3. Kinase cascade reaction: Add 2 μL/well 2× substrate/ATP solution to initiate kinase reactions. Centrifuge at 1000 rpm for 1 min. Incubate at room temperature for 180 min.
Final concentrations of components in the assay:
Step 4. Quench: Add 2 uL/well ADP Glo Reagent+0.05% CHAPS. Centrifuge at 1000 rpm for 1 min; Incubate at room temperature for one hour.
Step 5. Detection: Add 2 uL/well Kinase Detection Reagent+0.05% CHAPS. Centrifuge at 1000 rpm for 1 min; Incubate at room temperature for 1 hour; Read Luminescence on a plate reader.
as §3
IC50 values are determined from a 4-parameter fit, using the following equation: Y=Bottom+(Top−Bottom)/(1+10^(Log IC50-X)*Hill slope) where X=log10 of the compound concentration; top can be defined by PC; bottom defined by NC.

Sequence of PDGFRβ (Q05030 32-1097): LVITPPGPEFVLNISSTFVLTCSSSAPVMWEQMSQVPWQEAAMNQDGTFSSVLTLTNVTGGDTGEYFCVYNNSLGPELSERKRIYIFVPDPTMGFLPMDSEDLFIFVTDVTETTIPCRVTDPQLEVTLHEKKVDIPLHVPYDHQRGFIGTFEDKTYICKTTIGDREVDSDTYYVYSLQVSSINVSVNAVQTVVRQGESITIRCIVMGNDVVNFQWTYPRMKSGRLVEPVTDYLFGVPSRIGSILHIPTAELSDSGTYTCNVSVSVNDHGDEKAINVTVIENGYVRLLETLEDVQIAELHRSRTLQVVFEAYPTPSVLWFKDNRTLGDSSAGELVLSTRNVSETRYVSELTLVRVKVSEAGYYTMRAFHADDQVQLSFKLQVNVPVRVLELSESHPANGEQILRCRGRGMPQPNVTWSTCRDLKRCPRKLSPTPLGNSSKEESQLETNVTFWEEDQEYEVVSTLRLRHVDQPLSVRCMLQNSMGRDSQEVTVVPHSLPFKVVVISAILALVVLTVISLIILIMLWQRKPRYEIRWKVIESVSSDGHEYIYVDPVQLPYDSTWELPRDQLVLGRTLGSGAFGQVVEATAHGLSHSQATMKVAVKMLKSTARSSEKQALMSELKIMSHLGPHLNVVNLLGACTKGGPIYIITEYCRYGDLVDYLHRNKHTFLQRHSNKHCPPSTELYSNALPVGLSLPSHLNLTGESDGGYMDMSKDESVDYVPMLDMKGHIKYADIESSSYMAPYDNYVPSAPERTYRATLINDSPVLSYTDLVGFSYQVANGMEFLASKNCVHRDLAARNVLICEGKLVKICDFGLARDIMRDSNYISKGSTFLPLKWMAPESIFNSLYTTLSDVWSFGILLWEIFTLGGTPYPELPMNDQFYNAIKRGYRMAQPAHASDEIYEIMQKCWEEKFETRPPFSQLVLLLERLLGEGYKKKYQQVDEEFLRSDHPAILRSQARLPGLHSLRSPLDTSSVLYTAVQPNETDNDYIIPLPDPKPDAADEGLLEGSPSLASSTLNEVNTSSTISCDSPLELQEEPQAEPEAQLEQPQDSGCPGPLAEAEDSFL
Sequence of VEGFR2, unphosphorylated (P35968 20-1356): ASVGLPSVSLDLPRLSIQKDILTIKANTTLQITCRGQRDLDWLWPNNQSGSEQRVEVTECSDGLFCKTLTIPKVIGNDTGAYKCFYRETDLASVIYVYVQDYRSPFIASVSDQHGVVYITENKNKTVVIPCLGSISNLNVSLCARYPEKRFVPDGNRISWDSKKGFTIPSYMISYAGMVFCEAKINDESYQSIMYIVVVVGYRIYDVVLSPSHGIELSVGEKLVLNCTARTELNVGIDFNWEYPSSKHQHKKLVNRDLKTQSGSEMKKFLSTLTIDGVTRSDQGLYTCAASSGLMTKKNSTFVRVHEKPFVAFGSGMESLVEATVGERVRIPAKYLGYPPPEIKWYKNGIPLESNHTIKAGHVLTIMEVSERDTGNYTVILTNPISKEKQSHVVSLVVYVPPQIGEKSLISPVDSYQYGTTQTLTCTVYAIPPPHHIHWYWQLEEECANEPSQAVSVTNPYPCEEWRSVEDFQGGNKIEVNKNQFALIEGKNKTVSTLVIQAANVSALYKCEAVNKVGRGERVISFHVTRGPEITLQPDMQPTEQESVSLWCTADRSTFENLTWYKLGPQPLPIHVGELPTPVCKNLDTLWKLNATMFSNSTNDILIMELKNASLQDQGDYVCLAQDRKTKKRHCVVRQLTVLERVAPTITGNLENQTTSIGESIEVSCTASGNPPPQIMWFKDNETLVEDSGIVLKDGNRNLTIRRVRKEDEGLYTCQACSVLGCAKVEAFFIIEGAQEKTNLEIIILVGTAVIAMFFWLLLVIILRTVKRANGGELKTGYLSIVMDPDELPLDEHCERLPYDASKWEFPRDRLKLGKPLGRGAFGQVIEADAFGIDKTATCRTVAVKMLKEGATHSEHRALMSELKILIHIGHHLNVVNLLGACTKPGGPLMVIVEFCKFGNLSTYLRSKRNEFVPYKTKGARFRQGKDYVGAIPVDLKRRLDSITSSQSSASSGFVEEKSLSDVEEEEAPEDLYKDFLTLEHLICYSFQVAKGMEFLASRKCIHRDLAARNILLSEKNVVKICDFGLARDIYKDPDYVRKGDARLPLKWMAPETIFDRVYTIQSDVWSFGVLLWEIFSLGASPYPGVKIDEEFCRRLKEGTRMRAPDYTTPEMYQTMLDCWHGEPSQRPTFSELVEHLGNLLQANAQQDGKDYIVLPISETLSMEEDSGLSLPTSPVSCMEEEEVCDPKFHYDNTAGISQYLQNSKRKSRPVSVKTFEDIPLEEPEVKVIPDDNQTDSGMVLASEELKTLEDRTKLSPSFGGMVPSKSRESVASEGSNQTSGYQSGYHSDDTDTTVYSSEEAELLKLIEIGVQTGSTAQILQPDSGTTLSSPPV
Sequence of His6-TEV-PDGFRβ (557-1016) (P09619 557-1016): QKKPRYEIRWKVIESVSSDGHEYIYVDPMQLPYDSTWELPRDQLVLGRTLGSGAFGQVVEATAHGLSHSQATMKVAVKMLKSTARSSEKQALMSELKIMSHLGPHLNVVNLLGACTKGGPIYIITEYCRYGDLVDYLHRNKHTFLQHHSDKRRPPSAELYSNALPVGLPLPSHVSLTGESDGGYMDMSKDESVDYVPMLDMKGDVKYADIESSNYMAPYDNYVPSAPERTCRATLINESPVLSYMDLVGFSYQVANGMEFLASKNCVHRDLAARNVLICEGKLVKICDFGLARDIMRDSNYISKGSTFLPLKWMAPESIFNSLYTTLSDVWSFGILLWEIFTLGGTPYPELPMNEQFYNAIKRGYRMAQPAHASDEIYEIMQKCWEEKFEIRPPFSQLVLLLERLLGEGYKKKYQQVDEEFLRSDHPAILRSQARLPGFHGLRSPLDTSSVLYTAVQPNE

Structure (SMILES) | IC50 [1] | IC50 (PDGFRβ) | IC50 (VEGFR2, unphosphorylated)
Cc1ncc(NC(=O)CN2C[C@H](C)O[C@@H](C)C2)cc1NC(=O)c1cnn2cc(-c3ccc[nH]c3=O)sc12 (relative stereo) [Example 370, N-(5-(2-(trans-2,6-dimethylmorpholino)acetamido)-2-methylpyridin-3-yl)-2-(2-oxo-1,2-dihydropyridin-3-yl)pyrazolo[5,1-b]thiazole-7-carboxamide] | 0.001 µM | 0.544 µM | > 7.5 µM
Cc1ncc(C(=O)NCCN2CC3CCC2CC3)cc1NC(=O)c1cnn2cc(-c3cnn(C)c3)sc12 [Example 1, N-(5-((2-(2-azabicyclo[2.2.2]octan-2-yl)ethyl)carb-amoyl)-2-methylpyridin-3-yl)-2-(1-methyl-1H-pyrazol-4-yl)pyrazolo[5,1-b]thiazole-7-carboxamide] | 0.0002 µM | 0.0338 µM | > 7.5 µM
